In ChEMBL document CHEMBL1201862, “PubChem BioAssay data set” (2004):
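Assay format: 96-well plates, 48-hour exposure. The concentration for 50% growth inhibition is given as GI50.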 Active and inactive are the calls of the source. Rule as the data show it: active = GI50 up to about 1.1 µM and inactive = higher.

Assays:
Experiment in all cases: NCI anticancer screen, dose series, 48 h
M19-MEL = system: M19-MEL
NCI-H522 = system: NCI-H522
OVCAR-5 = system: OVCAR-5
A549 = system: A549
HOP-92 = system: HOP-92
HCT-116 = system: HCT-116
EKVX = system: EKVX
OVCAR-4 = system: OVCAR-4
HL-60 = system: HL-60
U-251 = system: U-251
OVCAR-8 = system: OVCAR-8
DMS-114 = system: DMS-114
HOP-62 = system: HOP-62
RXF 393 = system: RXF 393
MOLT-4 = system: MOLT-4
NCI-H23 = system: NCI-H23
ACHN = system: ACHN
SK-MEL-2 = system: SK-MEL-2
SN12C = system: SN12C
RPMI-8226 = system: RPMI-8226
SF-539 = system: SF-539
UACC-257 = system: UACC-257
K562 = system: K562
Malme-3M = system: Malme-3M
OVCAR-3 = system: OVCAR-3
KM12 = system: KM12
SK-MEL-28 = system: SK-MEL-28
KM-20L2 = system: KM-20L2
DMS-273 = system: DMS-273
COLO 205 = system: COLO 205
HT-29 = system: HT-29
HCC 2998 = system: HCC 2998
SW-620 = system: SW-620
CCRF-CEM = system: CCRF-CEM
CAKI-1 = system: CAKI-1
SK-MEL-5 = system: SK-MEL-5
TK-10 = system: TK-10
SR = system: SR
786-0 = system: 786-0
XF498 = system: XF498
LXFL 529 = system: LXFL 529
DLD-1 = system: DLD-1
SF-268 = system: SF-268
M14 = system: M14
SK-OV-3 = system: SK-OV-3
LOX IMVI = system: LOX IMVI
RXF 631 = system: RXF 631
SF-295 = system: SF-295
NCI-H226 = system: NCI-H226
SNB-75 = system: SNB-75
IGROV-1 = system: IGROV-1
NCI-H460 = system: NCI-H460
HCT-15 = system: HCT-15
UACC-62 = system: UACC-62
SNB-19 = system: SNB-19
HOP-18 = system: HOP-18
UO-31 = system: UO-31
A498 = system: A498
SNB-78 = system: SNB-78

Question: `CC(C)C(NCc1c2ccccc2nc2ccccc12)C(=O)O` (stereo unspecified) was tested. Which GI50 (M19-MEL) did it give?
Answer: The GI50 was 33 µM (inactive).

Question: And the GI50 (NCI-H522)?
Answer: The GI50 was 22 µM (inactive).

Question: And the GI50 (OVCAR-5)?
Answer: The GI50 was > 100 µM (inactive).

Question: What about the GI50 (A549) of the same compound?
Answer: The GI50 was 74.6 µM (inactive).

Question: What about the GI50 (HOP-92) of the same compound?
Answer: The GI50 was 12.4 µM (inactive).

Question: And the GI50 (HCT-116)?
Answer: Its GI50 is 26.4 µM (inactive).

Question: What about the GI50 (EKVX) of the same compound?
Answer: Its GI50 is 40.6 µM (inactive).

Question: And the GI50 (OVCAR-4)?
Answer: The GI50 was 15 µM (inactive).

Question: What about the GI50 (HL-60) of the same compound?
Answer: The GI50 was 25.3 µM (inactive).

Question: And the GI50 (U-251)?
Answer: Its GI50 is 91.8 µM (inactive).

Question: And the GI50 (OVCAR-8)?
Answer: Its GI50 is 26.5 µM (inactive).

Question: And the GI50 (DMS-114)?
Answer: The GI50 was 27.2 µM (inactive).

Question: And the GI50 (HOP-62)?
Answer: The GI50 was > 100 µM (inactive).

Question: And the GI50 (RXF 393)?
Answer: The GI50 was 24.5 µM (inactive).

Question: What about the GI50 (MOLT-4) of the same compound?
Answer: The GI50 was 15.2 µM (inactive).

Question: What about the GI50 (NCI-H23) of the same compound?
Answer: The GI50 was 41.8 µM (inactive).

Question: What about the GI50 (ACHN) of the same compound?
Answer: Its GI50 is 35 µM (inactive).

Question: And the GI50 (SK-MEL-2)?
Answer: The GI50 was 62.2 µM (inactive).

Question: And the GI50 (SN12C)?
Answer: Its GI50 is 50 µM (inactive).

Question: What about the GI50 (RPMI-8226) of the same compound?
Answer: The GI50 was 27.3 µM (inactive).

Question: And the GI50 (SF-539)?
Answer: Its GI50 is 45.3 µM (inactive).

Question: And the GI50 (UACC-257)?
Answer: Its GI50 is 54.5 µM (inactive).

Question: And the GI50 (K562)?
Answer: Its GI50 is 32.6 µM (inactive).

Question: What about the GI50 (Malme-3M) of the same compound?
Answer: The GI50 was 55.3 µM (inactive).

Question: What about the GI50 (OVCAR-3) of the same compound?
Answer: The GI50 was 39.5 µM (inactive).

Question: And the GI50 (KM12)?
Answer: The GI50 was 33.3 µM (inactive).

Question: What about the GI50 (SK-MEL-28) of the same compound?
Answer: The GI50 was 87.5 µM (inactive).

Question: What about the GI50 (KM-20L2) of the same compound?
Answer: The GI50 was 58.2 µM (inactive).

Question: And the GI50 (DMS-273)?
Answer: The GI50 was 32.6 µM (inactive).

Question: What about the GI50 (COLO 205) of the same compound?
Answer: The GI50 was 72.8 µM (inactive).

Question: What about the GI50 (HT-29) of the same compound?
Answer: The GI50 was 30.7 µM (inactive).

Question: What about the GI50 (HCC 2998) of the same compound?
Answer: Its GI50 is 47.9 µM (inactive).

Question: What about the GI50 (SW-620) of the same compound?
Answer: The GI50 was 39.9 µM (inactive).

Question: What about the GI50 (CCRF-CEM) of the same compound?
Answer: Its GI50 is 23.8 µM (inactive).

Question: What about the GI50 (CAKI-1) of the same compound?
Answer: Its GI50 is 28.6 µM (inactive).

Question: And the GI50 (SK-MEL-5)?
Answer: The GI50 was 64.4 µM (inactive).

Question: And the GI50 (TK-10)?
Answer: The GI50 was > 100 µM (inactive).

Question: What about the GI50 (SR) of the same compound?
Answer: Its GI50 is 20.6 µM (inactive).

Question: And the GI50 (786-0)?
Answer: The GI50 was 61.2 µM (inactive).

Question: And the GI50 (XF498)?
Answer: The GI50 was 21.1 µM (inactive).

Question: What about the GI50 (LXFL 529) of the same compound?
Answer: The GI50 was 39 µM (inactive).

Question: What about the GI50 (DLD-1) of the same compound?
Answer: The GI50 was 23.8 µM (inactive).

Question: What about the GI50 (SF-268) of the same compound?
Answer: Its GI50 is 36.7 µM (inactive).

Question: What about the GI50 (M14) of the same compound?
Answer: Its GI50 is 62.4 µM (inactive).

Question: And the GI50 (SK-OV-3)?
Answer: Its GI50 is > 100 µM (inactive).

Question: And the GI50 (LOX IMVI)?
Answer: Its GI50 is 30.5 µM (inactive).

Question: What about the GI50 (RXF 631) of the same compound?
Answer: The GI50 was 19.9 µM (inactive).

Question: What about the GI50 (SF-295) of the same compound?
Answer: Its GI50 is 81.5 µM (inactive).

Question: And the GI50 (NCI-H226)?
Answer: The GI50 was > 100 µM (inactive).

Question: And the GI50 (SNB-75)?
Answer: The GI50 was 61.8 µM (inactive).

Question: What about the GI50 (IGROV-1) of the same compound?
Answer: The GI50 was 27.4 µM (inactive).

Question: And the GI50 (NCI-H460)?
Answer: Its GI50 is 31.1 µM (inactive).

Question: What about the GI50 (HCT-15) of the same compound?
Answer: Its GI50 is 35.7 µM.

Question: What does the source list for `O=[N+]([O-])c1ccc(-n2nnc(C3=NCCN3)c2-c2ccc(Cl)cc2)cc1`?
Answer: GI50 (M19-MEL): > 100 µM (inactive); GI50 (NCI-H522): > 100 µM (inactive); GI50 (OVCAR-5): > 100 µM (inactive); GI50 (A549): > 100 µM (inactive); GI50 (HOP-92): > 100 µM (inactive); GI50 (HCT-116): 55.8 µM (inactive); GI50 (EKVX): > 100 µM (inactive); GI50 (OVCAR-4): > 100 µM (inactive); GI50 (HL-60): > 100 µM (inactive); GI50 (U-251): > 100 µM (inactive); GI50 (OVCAR-8): > 100 µM (inactive); GI50 (DMS-114): 77.1 µM (inactive); GI50 (HOP-62): > 100 µM (inactive); GI50 (RXF 393): 93.3 µM (inactive); GI50 (MOLT-4): 65.3 µM (inactive); GI50 (UACC-62): > 100 µM (inactive); GI50 (NCI-H23): > 100 µM (inactive); GI50 (ACHN): > 100 µM (inactive); GI50 (SK-MEL-2): > 100 µM (inactive); GI50 (SN12C): > 100 µM (inactive); GI50 (RPMI-8226): > 100 µM (inactive); GI50 (SF-539): > 100 µM (inactive); GI50 (SNB-19): > 100 µM (inactive); GI50 (UACC-257): > 100 µM (inactive); GI50 (K562): 83.8 µM (inactive); GI50 (Malme-3M): > 100 µM (inactive); GI50 (OVCAR-3): > 100 µM (inactive); GI50 (KM12): > 100 µM (inactive); GI50 (SK-MEL-28): > 100 µM (inactive); GI50 (KM-20L2): > 100 µM (inactive); GI50 (DMS-273): > 100 µM (inactive); GI50 (HOP-18): > 100 µM (inactive); GI50 (COLO 205): 51.6 µM (inactive); GI50 (HT-29): 66.8 µM (inactive); GI50 (HCC 2998): > 100 µM (inactive); GI50 (SW-620): > 100 µM (inactive); GI50 (CCRF-CEM): > 100 µM (inactive); GI50 (CAKI-1): > 100 µM (inactive); GI50 (UO-31): 83.2 µM (inactive); GI50 (SK-MEL-5): > 100 µM (inactive); GI50 (TK-10): 69 µM (inactive); GI50 (SR): 27.2 µM (inactive); GI50 (786-0): > 100 µM (inactive); GI50 (XF498): > 100 µM (inactive); GI50 (LXFL 529): > 100 µM (inactive); GI50 (DLD-1): > 100 µM (inactive); GI50 (SF-268): 73.3 µM (inactive); GI50 (M14): > 100 µM (inactive); GI50 (SK-OV-3): > 100 µM (inactive); GI50 (LOX IMVI): > 100 µM (inactive); GI50 (SF-295): > 100 µM (inactive); GI50 (NCI-H226): > 100 µM (inactive); GI50 (SNB-75): 83.6 µM (inactive); GI50 (IGROV-1): > 100 µM (inactive); GI50 (NCI-H460): 91.4 µM (inactive); GI50 (HCT-15): > 100 µM; GI50 (A498): > 100 µM (inactive); GI50 (SNB-78): > 100 µM (inactive)
